Among the test systems are SNB-19 CNS; MDA-MB-231 breast; CCRF-CEM leukemia; 786-0 renal; SK-MEL-28 melanoma; SN12C renal; K-562 leukemia.
What all share (assay): NCI tumour cell line growth inhibition, 48 h

The results in this text go back to PubChem BioAssay (NCI).

Each structure is given as a SMILES string.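 Following 48 hours of exposure in 96-well plates, responses at five concentrations were used to interpolate endpoints linearly. GI50: concentration for 50% inhibition of growth. TGI is the concentration that stops growth completely.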 Bounds are passed on as bounds.

Consider `O=C(/C=C/c1ccco1)c1ccc(Nc2nc(Nc3ccc(F)cc3)nc(Nc3ccc(Cl)cc3)n2)cc1`, for which the GI50 with SNB-19 CNS was 34.8 µM; in the test with MDA-MB-231 breast, 16.2 µM; with CCRF-CEM leukemia, greater than 37.8 µM; with 786-0 renal, greater than 34.3 µM; in the test on SK-MEL-28 melanoma, greater than 40.2 µM; with SN12C renal it was 45.6 µM. Also, the GI50 with K-562 leukemia is 24.3 µM. Besides, the TGI in the test on SNB-19 CNS is greater than 70 µM; in the test with MDA-MB-231 breast it was 61.9 µM; with CCRF-CEM leukemia, greater than 94.4 µM; with 786-0 renal it was greater than 49.4 µM; with SK-MEL-28 melanoma, greater than 61.8 µM; in the test on SN12C renal, greater than 100 µM. The compound also returned a TGI with K-562 leukemia greater than 64.8 µM.

In the case of `Cc1ccc(C)c(NC(=O)C(=O)C2C(=O)C3=C(CC2(C)C)Nc2ccccc2S3)c1` (centres undefined), the TGI in the test on SNB-19 CNS, in the test with MDA-MB-231 breast, in the test on CCRF-CEM leukemia, in the test on 786-0 renal, with SK-MEL-28 melanoma and with SN12C renal was greater than 100 µM throughout.

In the case of `O=C1c2ccccc2-c2c1c1ccccc1c(=O)n2Cc1ccco1`, the TGI with MDA-MB-231 breast, in the test on CCRF-CEM leukemia, in the test on 786-0 renal, in the test with SK-MEL-28 melanoma, with SN12C renal and with K-562 leukemia was greater than 100 µM in each case.

As to `O=[N+]([O-])c1ccc(N2CCN(Cc3ccccc3)CC2)c2c1no[n+]2[O-]`, the GI50 in the test on SNB-19 CNS was 2.23 µM; in the test with MDA-MB-231 breast, 1.56 µM; with CCRF-CEM leukemia it was 0.155 µM; in the test with 786-0 renal, 1.72 µM; in the test on SK-MEL-28 melanoma, 3.56 µM; in the test on SN12C renal, 1.63 µM. Further, the GI50 in the test with K-562 leukemia is 1.05 µM. Also, the TGI in the test on SNB-19 CNS worked out at 6.51 µM; in the test on MDA-MB-231 breast it was 3.08 µM; in the test with CCRF-CEM leukemia, 2.49 µM; with 786-0 renal, 3.18 µM; in the test on SK-MEL-28 melanoma it was 9.07 µM; in the test on SN12C renal, 3.53 µM. In addition, in the test on K-562 leukemia, the TGI is 2.98 µM.

On to `COc1ccc(-c2ccc(C3CC(c4ccc(O)cc4)=NN3)o2)c([N+](=O)[O-])c1` (centres undefined), for which the GI50 was 82.6 µM with SNB-19 CNS; 4.84 µM in the test with CCRF-CEM leukemia; 45.1 µM with 786-0 renal; 45.8 µM in the test with SK-MEL-28 melanoma; 30.8 µM in the test with SN12C renal; 13.9 µM in the test with K-562 leukemia. The TGI in the test with SNB-19 CNS is greater than 100 µM; with CCRF-CEM leukemia, greater than 100 µM; in the test on 786-0 renal it was greater than 100 µM; in the test with SK-MEL-28 melanoma, greater than 100 µM; with SN12C renal it was greater than 100 µM; in the test with K-562 leukemia, 36.3 µM.

Regarding `O=[N+]([O-])c1cnc(Sc2ccncn2)c([N+](=O)[O-])c1`, the GI50 in the test with SNB-19 CNS was 32.8 µM; in the test on MDA-MB-231 breast, 14.8 µM; in the test on CCRF-CEM leukemia, 1.21 µM; in the test with 786-0 renal it was 12.2 µM; with SK-MEL-28 melanoma it was 15.6 µM; in the test with SN12C renal, 16 µM. Further, in the test on K-562 leukemia, the GI50 is 2.85 µM. The TGI was greater than 100 µM with SNB-19 CNS; 28.4 µM in the test with MDA-MB-231 breast; 4.47 µM in the test on CCRF-CEM leukemia; 25 µM in the test with 786-0 renal; 29.7 µM in the test on SK-MEL-28 melanoma; 29.9 µM in the test with SN12C renal. The TGI in the test with K-562 leukemia came to 29.9 µM.

As to `CC(C(=O)N1C(=O)N(C(=O)C(C)C(O)c2ccccc2)C(c2ccccc2)C1c1ccccc1)C(O)c1ccccc1` (centres undefined), the TGI in the test with SNB-19 CNS is greater than 100 µM; with MDA-MB-231 breast, 77.9 µM; with CCRF-CEM leukemia, 32.2 µM; with 786-0 renal, greater than 100 µM; in the test with SK-MEL-28 melanoma, 40.2 µM; in the test with SN12C renal it was 37.3 µM. In the test on K-562 leukemia, this compound had a TGI of 41.6 µM.

As to `O=C(Nc1ccc(-c2nc3cc4ccccc4cc3[nH]2)cc1)c1cccc(Br)c1`, the GI50 was 39.2 µM with SNB-19 CNS; 3.11 µM in the test on MDA-MB-231 breast; 9.55 µM in the test with CCRF-CEM leukemia; 5.48 µM with 786-0 renal; 4.33 µM with SK-MEL-28 melanoma; 8.67 µM in the test on SN12C renal. Moreover, the TGI was greater than 100 µM with SNB-19 CNS; 19.3 µM with MDA-MB-231 breast; 80.4 µM with CCRF-CEM leukemia; 18 µM in the test on 786-0 renal; 16.8 µM with SK-MEL-28 melanoma; 34.9 µM in the test with SN12C renal.

As for `Oc1ccc2ccccc2c1C=NCCCN=Cc1c(O)ccc2ccccc12`, the GI50 with SNB-19 CNS is 14.7 µM; in the test on MDA-MB-231 breast it was 11.6 µM; in the test with CCRF-CEM leukemia it was 5.26 µM; with 786-0 renal, 17.4 µM; in the test on SK-MEL-28 melanoma, 15.8 µM. For the same compound, the TGI was greater than 100 µM in the test with SNB-19 CNS; 30.2 µM with MDA-MB-231 breast; 56.5 µM with CCRF-CEM leukemia; 40.7 µM with 786-0 renal; greater than 100 µM in the test on SK-MEL-28 melanoma.

Turning to `Oc1c(CN2CCC(N3CCOCC3)CC2)cc(Cc2cc(CN3CCC(N4CCOCC4)CC3)c(O)c3ncccc23)c2cccnc12`, the GI50 is 0.67 µM in the test with SNB-19 CNS; 0.27 µM in the test with MDA-MB-231 breast; 0.337 µM in the test on CCRF-CEM leukemia; 1.07 µM with 786-0 renal; 1.4 µM with SK-MEL-28 melanoma; 0.67 µM with SN12C renal. Also, the TGI is greater than 100 µM in the test on SNB-19 CNS; 5.03 µM in the test on MDA-MB-231 breast; greater than 100 µM with CCRF-CEM leukemia; 17.7 µM with 786-0 renal; 22.9 µM with SK-MEL-28 melanoma; greater than 100 µM in the test with SN12C renal.

Turning to `OCCN(CCO)N=Nc1ccc(-c2nc3ccccc3[nH]2)cc1`, the GI50 is greater than 100 µM in the test with SNB-19 CNS; 31.3 µM in the test on MDA-MB-231 breast; 25.2 µM in the test with 786-0 renal; 15.8 µM with SK-MEL-28 melanoma; 85.5 µM in the test with SN12C renal; 24 µM in the test on K-562 leukemia. Further, the TGI with SNB-19 CNS was greater than 100 µM; with MDA-MB-231 breast it was 97.8 µM; in the test on 786-0 renal it was 56.2 µM; in the test with SK-MEL-28 melanoma it was 29.5 µM; in the test on SN12C renal it was greater than 100 µM; with K-562 leukemia, greater than 100 µM.

Regarding `CCCCCCCCCCCCN1C(C)=CS/C1=C\C=C\c1scc(C)[n+]1CCCCCCCCCCCC`, the GI50 is 1.91 µM in the test on SNB-19 CNS; 1.98 µM in the test on CCRF-CEM leukemia; 2.17 µM in the test on 786-0 renal; 2.74 µM in the test with SK-MEL-28 melanoma; 1.65 µM in the test with SN12C renal. The TGI is 10.3 µM in the test with SNB-19 CNS; greater than 100 µM with CCRF-CEM leukemia; 7.37 µM with 786-0 renal; 17.3 µM in the test with SK-MEL-28 melanoma; 4.2 µM in the test with SN12C renal.
